In patent US5523403A, “Tropone-substituted phenyloxazolidinone antibacterial agents” (The Upjohn Company, priority 1995, dated 1996):
Values after ≈ are worked out from the molar mass of the structure shown.

Columns and labels:
[1] = system: Staphylococcus aureus UC ® 9213; assay: in vitro antibacterial activity, Minimum Inhibitory Concentration, Staphylococcus aureus; details: for MIC: Staphylococcus aureus, UC9213, read-out: Minimum Inhibitory Concentration; for Minimum Inhibitory Concentration: in vitro, Staphylococcus aureus UC ® 9213
[2] = system: Streptococcus pyogenes UC ® 152; assay: in vitro antibacterial activity, Minimum Inhibitory Concentration, Streptococcus pyogenes; details: for MIC: Streptococcus pyogenes, UC152, read-out: Minimum Inhibitory Concentration; for Minimum Inhibitory Concentration: in vitro, Streptococcus pyogenes UC ® 152

In the case of `CC(=O)NCC1CN(c2ccc(-c3ccc(OC(C)C)c(=O)cc3)cc2)C(=O)O1` (racemic) [Compound 24, (±)-N[[3-[4-[4-(1-methylethoxy)-5-oxo-1,3,6-cycloheptatrien-1-yl]phenyl]-2-oxo-5-oxazolidinyl]methyl]-acetamide], the MIC [1] is reported as 4 µg/mL (≈ 10.1 µM) and the MIC [2] is reported as 1 µg/mL (≈ 2.52 µM).

`C=CCNc1cccc(-c2ccc(N3CC(CNC(C)=O)OC3=O)cc2)cc1=O` (racemic) [Compound 26, (±)-N[[3-[4-[4-(2-propenylamino)-3-oxo1,4,6-cycloheptatrien-1-yl]phenyl-2oxo-5-oxazolidinyl]methyl]-acetamide] gave an MIC [1] of 2 µg/mL (≈ 5.08 µM) and an MIC [2] of 1 µg/mL (≈ 2.54 µM).

With `CC(=O)NCC1CN(c2ccc(-c3cccc(N4CCOCC4)c(=O)c3)cc2)C(=O)O1` (racemic) [Compound 27, (±)-N-[]3-[4-4-(4-morpholinyl)-3-oxo-1,4,6-cycloheptatrien-1-yl]phenyl]-2-oxo-5-oxazolidinyl]methyl]-acetamide] the MIC [1] was 4 µg/mL (≈ 9.45 µM) and the MIC [2] was 1 µg/mL (≈ 2.36 µM).

With `C#CCNc1cccc(-c2ccc(N3CC(CNC(C)=O)OC3=O)cc2)cc1=O` (racemic) [Compound 29, (±)-N-[[3-[4-[4-(2-pyopynylamino)-3-oxo-1,4,6-cycloheptatrien-1-yl)phenyl]2-oxo-5-oxazolidinyl]methyl-acetamide] the MIC [1] was 2 µg/mL (≈ 5.11 µM) and the MIC [2] was 0.5 µg/mL (≈ 1.28 µM).

For `COC(=O)CNc1ccc(-c2ccc(N3CC(CNC(C)=O)OC3=O)cc2)ccc1=O` (racemic) [Compound 30, (±)-N-[[3-[4-[-[[(methoxycarbonyl)methyl]amino]-5-oxo-1,3,6cycloheptatrien-1-yl]phenyl]-2-oxo-5-oxazolidinyl]methyl]-acetamide], the “Minimum Inhibitory Concentration” value [1] was 4 µg/mL and the “Minimum Inhibitory Concentration” value [2] was 1 µg/mL.

For `CNc1ccc(-c2ccc(N3CC(CNC(C)=O)OC3=O)cc2)ccc1=O` (racemic) [Compound 31, (±)-N-[[3-[4-(4-methylamino--5-oxo1,3,6-cyclopheptatrien1-yl)phenyl]2-oxo-5-oxazolidinyl]methyl]-acetamide], the MIC [1] was 2 µg/mL (≈ 5.44 µM) and the MIC [2] was 0.25 µg/mL (≈ 0.68 µM).

With `CC(=O)NCC1CN(c2ccc(-c3ccc(N4CC=CC4)c(=O)cc3)cc2)C(=O)O1` (racemic) [Compound 32, (±)-N-[[3-[4-[4-(2,5dihydro-1H--pyrrol-1-yl)-5-oxo-1,3,6-cycloheptatrien-1-yl]phenyl]-2-oxo-5-oxazolidinyl]methyl]-acetamide] the MIC [1] was 32 µg/mL (≈ 78.9 µM) and the MIC [2] was 4 µg/mL (≈ 9.87 µM).

`C=CCOc1ccc(-c2ccc(N3CC(CNC(C)=O)OC3=O)cc2)ccc1=O` (racemic) [Compound 33, (±)-N-[[3-[4-[4-(2-propenyloxy)5-oxo-1,3,6-cycloheptatrien-1-yl]phenyl]-2-oxo-5-oxazolidinyl)methyl]-acetamide] was tested, and the MIC [1] was 4 µg/mL (≈ 10.1 µM) and the MIC [2] was 1 µg/mL (≈ 2.54 µM).

`COCCOc1ccc(-c2ccc(N3CC(CNC(C)=O)OC3=O)cc2)ccc1=O` (racemic) [Compound 35, (±)-N-[[3-[4-[4-(2-methoxyethoxy)-5-oxo-1,3,6cycloheptatrien1-yl]phenyl)-2-oxo-5-oxazolidinyl]methyl]-acetamide] gave an MIC [1] of 4 µg/mL (≈ 9.7 µM) and an MIC [2] of 1 µg/mL (≈ 2.42 µM).

Compound `COc1ccc(-c2ccc(N3C[C@H](CNC(C)=O)OC3=O)cc2F)ccc1=O` [Compound 19] has an MIC [1] of 1 µg/mL (≈ 2.59 µM) and an MIC [2] of 0.25 µg/mL (≈ 0.647 µM).

Compound `CC(=O)NC[C@H]1CN(c2ccc(-c3ccc(N4CCOCC4)c(=O)cc3)cc2)C(=O)O1` [Compound 25, (S)-N-[[3-[4[4-(4-morpholino)-5-oxo-1,3,6-cycloheptatrien-1-yl]phenyl]-2-oxo-5-oxazolidinyl]methyl]-acetamide] has an MIC [1] of 2 µg/mL (≈ 4.72 µM) and an MIC [2] of 0.5 µg/mL (≈ 1.18 µM).

`C#CCNc1ccc(-c2ccc(N3C[C@H](CNC(C)=O)OC3=O)cc2F)ccc1=O` [Compound 34] was tested, and the “Minimum Inhibitory Concentration” value [1] was 1 µg/mL and the “Minimum Inhibitory Concentration” value [2] was 0.25 µg/mL.

Work on `CC(=O)NC[C@H]1CN(c2ccc(-c3ccc(N4CCOCC4)c(=O)cc3)c(F)c2)C(=O)O1` [Compound 36, (S)-N-[[3-[3-fluoro4[(4-morpholino)-5-oxo-1,3,6cycloheptatrien-1-yl]phenyl]-2-oxo-5oxazolidinyl]methyl]-acetamide] yielded an MIC [1] of 2 µg/mL (≈ 4.53 µM) and an MIC [2] of 0.5 µg/mL (≈ 1.13 µM).

With “(±)-N-[[3-[4-[4-(3-amino-1-yl]phenyl]-2-oxo-5-oxazolidinyl]methyl]-acetamide [Compound 23]” the “Minimum Inhibitory Concentration” value [1] was 16 µg/mL and the “Minimum Inhibitory Concentration” value [2] was 0.25 µg/mL.
